Source: US20230024302A1, “2,3,5-TRISUBSTITUTED PYRAZOLO[1,5-A]PYRIMIDINE COMPOUNDS” (Arcus Biosciences, Inc., priority 2019, published 2023)

Legend:
PI3Kγ (p120γ) = biological target: T1, PI3Kγ (p120γ) (Homo sapiens, UniProt P48736); experiment: Inhibition of PI3K kinase activity (ADP Glo), PI3Kγ; details: Table 2, p120γ, read-out: biochemical potency (PI3Kγ IC50)
T1 construct: purchased Promega V1761
Summary of the method: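 IC50 values come from a 4-parameter nonlinear fit of ADP-Glo luminescence, which measures ADP produced as PIP2 is phosphorylated to PIP3. The p120γ enzyme (2× stock 8 nM) sat with compound 1 h at rt before substrate (2× stocks: 50 μM ATP, 0.1 mg/ml PIP2) was added. Phosphorylation then proceeded 60 min at rt.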

PI3Kγ = biological target: T2, PI3Kγ (Homo sapiens, UniProt P48736); experiment: PI3Kγ cellular assay in THP-1 cells (AKT pS473 AlphaLISA); type: cell-based; details: Table 2, rhMCP-1 stimulated AKT pS473, read-out: cellular potency (PI3Kγ IC50)
T2 construct: host or cells: THP-1
Summary of the method: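 Endogenous AKT S473 phosphorylation, detected by AlphaLISA in lysates, serves as the PI3Kγ activity read-out in stimulated, serum-starved THP-1 cells (1.8×10^5/well).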

T1 sequence (P48736 whole entry): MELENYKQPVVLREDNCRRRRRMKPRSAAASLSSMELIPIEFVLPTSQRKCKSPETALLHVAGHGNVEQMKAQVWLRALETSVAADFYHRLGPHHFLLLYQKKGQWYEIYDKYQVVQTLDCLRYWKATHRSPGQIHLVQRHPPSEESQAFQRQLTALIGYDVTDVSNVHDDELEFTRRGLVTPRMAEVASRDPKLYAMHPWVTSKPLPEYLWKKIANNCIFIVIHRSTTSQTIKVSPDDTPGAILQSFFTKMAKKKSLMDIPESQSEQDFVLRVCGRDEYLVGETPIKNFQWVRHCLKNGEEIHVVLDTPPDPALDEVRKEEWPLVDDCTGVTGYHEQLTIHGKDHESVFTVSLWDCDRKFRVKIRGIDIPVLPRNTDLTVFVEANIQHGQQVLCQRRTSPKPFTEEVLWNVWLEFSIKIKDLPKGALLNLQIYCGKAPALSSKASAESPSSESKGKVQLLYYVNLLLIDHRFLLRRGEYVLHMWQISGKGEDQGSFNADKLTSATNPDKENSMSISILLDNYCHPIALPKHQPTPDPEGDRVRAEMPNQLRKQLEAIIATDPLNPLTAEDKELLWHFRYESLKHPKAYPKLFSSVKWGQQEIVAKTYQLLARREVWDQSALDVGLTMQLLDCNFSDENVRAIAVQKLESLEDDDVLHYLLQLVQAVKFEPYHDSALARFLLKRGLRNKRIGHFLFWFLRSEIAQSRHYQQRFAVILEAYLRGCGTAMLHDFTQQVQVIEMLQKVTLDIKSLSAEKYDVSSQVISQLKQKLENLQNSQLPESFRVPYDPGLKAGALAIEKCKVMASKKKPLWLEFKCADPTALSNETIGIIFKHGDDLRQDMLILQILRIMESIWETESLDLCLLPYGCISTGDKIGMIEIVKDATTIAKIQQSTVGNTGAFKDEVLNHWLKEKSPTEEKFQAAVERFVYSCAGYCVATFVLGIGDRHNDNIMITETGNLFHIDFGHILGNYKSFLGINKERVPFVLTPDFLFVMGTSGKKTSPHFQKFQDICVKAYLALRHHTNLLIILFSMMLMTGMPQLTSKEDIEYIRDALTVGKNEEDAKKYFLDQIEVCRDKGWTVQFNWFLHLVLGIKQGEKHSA
T2 sequence (P48736 whole entry): as above

SMILES | IC50 (PI3Kγ (p120γ)) [nM] | IC50 (PI3Kγ) [nM]
Cc1cc(-c2ccn3nc(N)c(C(=O)N[C@H]4CC[C@H](C(=O)O)CC4)c3n2)cc2c1C(=O)N([C@@H](C)C1CC1)C2 [Example 187] | < 100 | 100 to 1000
Cc1cc(-c2ccn3nc(N)c(C(=O)NCC4(O)CC4)c3n2)cc2c1C(=O)N([C@@H](C)C1CC1)C2 [Example 188] | < 100 | 100 to 1000
Cc1cc(-c2ccn3nc(N)c(C(=O)NC4CCC4)c3n2)cc2c1C(=O)N([C@@H](C)C1CC1)C2 [Example 189] | < 100 | 100 to 1000
Cc1cc(-c2ccn3nc(N)c(C(=O)N[C@@H](C)C(N)=O)c3n2)cc2c1C(=O)N([C@@H](C)C1CC1)C2 [Example 190] | < 100 | 100 to 1000
Cc1cc(-c2ccn3nc(N)c(C(=O)N[C@@H](CO)C(C)C)c3n2)cc2c1C(=O)N([C@@H](C)C1CC1)C2 [Example 191] | < 100 | 100 to 1000
Cc1cc(-c2ccn3nc(N)c(C(=O)N[C@@H](CO)c4ccccc4)c3n2)cc2c1C(=O)N([C@@H](C)C1CC1)C2 [Example 192] | < 100 | 100 to 1000
Cc1cc(-c2ccn3nc(N)c(C(=O)N[C@H]4CC[C@@H](C(=O)O)CC4)c3n2)cc2c1C(=O)N([C@@H](C)C1CC1)C2 [Example 193] | < 100 | 100 to 1000
CC(=O)N1CC(NC(=O)c2c(N)nn3ccc(-c4cc(C)c5c(c4)CN([C@@H](C)C4CC4)C5=O)nc23)C1 [Example 194] | < 100 | 100 to 1000
Cc1cc(-c2ccn3nc(N)c(C(=O)N[C@@H](CO)C4CC4)c3n2)cc2c1C(=O)N([C@@H](C)C1CC1)C2 [Example 195] | < 100 | 100 to 1000
Cc1cc(-c2ccn3nc(N)c(C(=O)N[C@H]4C[C@@](C)(O)C4)c3n2)cc2c1C(=O)N([C@@H](C)C1CC1)C2 [Example 196] | < 100 | 100 to 1000
Cc1cc(-c2ccn3nc(N)c(C(=O)N[C@@H]4CC[C@H](O)C4)c3n2)cc2c1C(=O)N([C@@H](C)C1CC1)C2 [Example 197] | < 100 | 100 to 1000
Cc1cc(-c2ccn3nc(N)c(C(=O)N[C@@H]4c5ccccc5C[C@H]4O)c3n2)cc2c1C(=O)N([C@@H](C)C1CC1)C2 [Example 198] | < 100 | 100 to 1000
Cc1cc(-c2ccn3nc(N)c(C(=O)N[C@@H]4COC[C@H]4O)c3n2)cc2c1C(=O)N([C@@H](C)C1CC1)C2 [Example 199] | < 100 | 100 to 1000
Cc1cc(-c2ccn3nc(N)c(C(=O)N[C@@H](C)C4CCOCC4)c3n2)cc2c1C(=O)N([C@@H](C)C1CC1)C2 [Example 200] | < 100 | 100 to 1000
Cc1cc(-c2ccn3nc(N)c(C(=O)NCc4ccncc4)c3n2)cc2c1C(=O)N([C@@H](C)C1CC1)C2 [Example 201] | < 100 | 100 to 1000
Cc1cc(-c2ccn3nc(N)c(C(=O)N[C@@H]4CNC(=O)C4)c3n2)cc2c1C(=O)N([C@@H](C)C1CC1)C2 [Example 202] | < 100 | 100 to 1000
Cc1cc(-c2ccn3nc(N)c(C(=O)NCC(C)(C)O)c3n2)cc2c1C(=O)N([C@@H](C)C1CC1)C2 [Example 203] | < 100 | 100 to 1000
Cc1cc(-c2ccn3nc(N)c(C(=O)N[C@H]4CC[C@@H](O)CC4)c3n2)cc2c1C(=O)N([C@@H](C)C1CC1)C2 [Example 205] | < 100 | 100 to 1000
Cc1cc(-c2ccn3nc(N)c(C(=O)N[C@H](C)CO)c3n2)cc2c1C(=O)N([C@@H](C)C1CC1)C2 [Example 206] | < 100 | 100 to 1000
Cc1cc(-c2ccn3nc(N)c(C(=O)NCc4ccn(C)n4)c3n2)cc2c1C(=O)N([C@@H](C)C1CC1)C2 [Example 207] | < 100 | 100 to 1000
Cc1cc(-c2ccn3nc(N)c(C(=O)NC4CC4)c3n2)cc2c1C(=O)N([C@@H](C)C1CC1)C2 [Example 208] | < 100 | 100 to 1000
Cc1cc(-c2ccn3nc(N)c(C(=O)NC4CCN(C)CC4)c3n2)cc2c1C(=O)N([C@@H](C)C1CC1)C2 [Example 209] | < 100 | 100 to 1000
Cc1cc(-c2ccn3nc(N)c(C(=O)N[C@H]4CCC[C@@H]4O)c3n2)cc2c1C(=O)N([C@@H](C)C1CC1)C2 [Example 210] | < 100 | 100 to 1000
Cc1cc(-c2ccn3nc(N)c(C(=O)N[C@H]4CC[C@@H]4O)c3n2)cc2c1C(=O)N([C@@H](C)C1CC1)C2 [Example 211] | < 100 | 100 to 1000
Cc1cc(-c2ccn3nc(N)c(C(=O)N[C@@H](C)c4cccnc4)c3n2)cc2c1C(=O)N([C@@H](C)C1CC1)C2 [Example 212] | < 100 | 100 to 1000
Cc1cc(-c2ccn3nc(N)c(C(=O)NCC4CC4)c3n2)cc2c1C(=O)N([C@@H](C)C1CC1)C2 [Example 213] | < 100 | 100 to 1000
